We go through two molecules from patent publication US7534766B2, “Glucuronide metabolites and epimers thereof of tigecycline” (Wyeth, priority 2004, dated 2009).

Like-named read-outs stand apart in the source and are kept apart here.

Series [1] can be described thus: LC/MS detection of tigecycline metabolites in CD-1 mouse serum and urine after intravenous tigecycline. As to conditions: mouse, in vivo, iv, 5 mg/kg. On the procedure:
Fifteen male CD-1 mice, with an average weight of 31.3 g at the time of dosing, were used. Animals were given food and water ad libitum. Mice in the 0.5 and 2 hour blood collection groups were housed in standard cages, while those in the 4 hour blood collection group were housed in metabolism cages for the collection of urine. Mice were dosed by the Bioresources Department at Wyeth Research, Collegeville, Pa.
For mice and rabbits, the intravenous dosing solutions was prepared by dissolving 50 mg of tigecycline in 5.0 mL of 0.9% sterile saline solution to make a working stock solution. The working stock solution was diluted with 0.9% sterile saline solution to 0.5 mg/mL for mice and 4 mg/mL for rabbits. The mouse dose (5 mg/kg, 10 mL/kg) was administered as a bolus injection via the tail vein. The rabbit dose (4 mg/kg, 1 mL/kg) was administered as a bolus injection via the marginal vein of the ear.
For mice (n=5/time point), blood (approximately 0.7 mL) was collected by cardiac puncture at 0.5, 2 and 4 hours following administration of tigecycline. For rabbits, blood (approximately 7 mL) was collected via the ear vein at 0.5, 2 and 6 hours following the tigecycline dose. Serum was separated following clot formation at room temperature and centrifugation for 15 minutes at 4° C. and 3000 rpm. The serum was transferred to a fresh tube and was stored at approximately −70° C. until analysis as described below under “Serum Sample Preparation for LC/MS Analysis. In addition, urine was collected from mice in the 4 hour blood collection group and was stored at approximately −70° C. until analysis, as described below under “Urine Sample Preparation for LC/MS Analysis.”
Mouse urine was thawed and an aliquot (1 mL) transferred to a fresh tube. The sample was centrifuged at 14,000 rpm and room temperature for 10 minutes using a Model 5415C Eppendorf centrifuge (Brinkmann Instruments, Westbury, N.Y.) to remove any particulates. The sample was then transferred to a fresh tube and was analyzed by LC/MS, as described below under “Liquid Chromatography/Mass Spectrometry Analysis.”.
Mouse and rabbit serum samples were pooled at each collection time and analyzed for tigecycline, its epimer, tigecycline glucuronide (M7 and its epimer M6), 9-aminominocycline (M3) and N-acetyl-9-aminominocycline (M9 and its epimer M8). Aliquots of serum (500 μL) were transferred to new tubes and deuterated tigecycline (30 ng/mL final concentration) was added as an internal standard (quantitative analysis only). EDTA (40 μL of 0.5 M EDTA) was added to each sample and the samples vortex mixed. Acetonitrile (500 μL) was added to each sample, samples were vortex mixed and denatured protein separated by centrifugation at 14,000 rpm and room temperature for 10 minutes using a Model 5415C Eppendorf centrifuge (Brinkmann Instruments). The supernatant was transferred to a fresh tube and the solvent evaporated under a stream of nitrogen using a Turbovap Model LV evaporator (Caliper Life Sciences, Hopkinton, Mass.).
The HPLC system used for mass spectrometric analysis was a Waters Alliance Model 2695 HPLC system (Waters Corp., Milford, Mass.). It was equipped with a built-in autosampler and a Model 996 diode array UV detector. The UV detector was set to monitor 210-400 nm. Separations for metabolite characterization were accomplished on a Phenomenex Luna C18(2) column (150×2.1 mm, 5 μm) (Phenomenex, Torrance, Calif.) equipped with a Keystone Uniguard C18 guard column (10×2.1 mm) (Thermo Electron Corp., Bellefonte, Pa.). The column temperature was 25° C. The flow rate was 0.2 mL/min. Mobile phase A was 10 mM ammonium acetate in water and mobile phase B was acetonitrile.

Series [2] in a line: Tigecycline metabolites identified in CD-1 mouse serum and urine and rabbit serum samples (LC/MS). Type of series: in vivo. As to conditions: in vivo, iv. Here is the method:
The column temperature was 25° C. The flow rate was 0.2 mL/min. […] Gradient 1 was used for metabolite identification (qualitative analysis).
LC/MS analysis was conducted on extracts of serum and from CD-1 mice and rabbits, and on urine from CD-1 mice. The mass spectral data for tigecycline and its metabolites are discussed below.

The conditions of series [3]: following multiple administrations of tigecycline; cited from earlier work.
Series [4] in a line: Mass balance: percent of [14C]tigecycline dose excreted in human urine and feces. On the procedure: The concentration of tigecycline-related components in serum, urine and feces was calculated based on the total radioactivity concentrations reported elsewhere. These concentrations were converted to ng-tigecycline equivalents using the specific activity of the dose (1.00 μCi/mg). Using this value, the concentrations of the specific components were then estimated based on the distribution of radioactivity in the radiochromatograms.
An open-label, inpatient, multiple-dose tigecycline, single-dose [^14C]tigecycline metabolic disposition and mass balance study was performed in six healthy male volunteers. The clinical protocol called for twelve subjects. Of these twelve, six received the radioactive dose (subjects 1, 4, 5, 6, 7, and 8 with subject 8 later dropping out of the study.) Eligible subjects were selected based on inclusion/exclusion criteria, medical history, physical examination and additional procedures outlined in the study protocol. Each subject received a 100 mg loading dose on the morning of Day 1, followed by a 50 mg maintenance dose every 12 hours for an additional 5 doses. On the morning of study Day 4, six subjects received a single 50 mg dose of [^14C]tigecycline (50 μCi). Each tigecycline dose was administered via a 30-minute intravenous infusion.
Serum samples were collected for metabolite profiling prior to tigecycline dosing and 1, 4, 8, 24 and 48 hours following the [^14C]-labeled dose. For metabolite profiling, urine samples were collected at 0-4, 4-8, 8-24 and 24-48 hours and fecal samples were collected up to 48 hours following the [^14C]-labeled dose. Serum and urine samples, and fecal homogenates were shipped on dry ice to the Biotransformation Division of Drug Safety and Metabolism, Wyeth Research, Collegeville, Pa. The details of the sample collection and sample storage are described in the mass balance portion of the study. The 24-48 hour urine and fecal samples for subject #6 were incomplete since the subject withdrew from the study. While samples from this subject were used for metabolite profiling, the samples were not included in the mass balance calculations.

Series [5] can be described thus: Stability of [14C]tigecycline in control human serum incubated at 37° C. The settings on record: for percent radioactivity in spiked control serum: 37° C., 3 μg/mL. Here is the method: The stability of [^14C]tigecycline was examined in control serum incubated at 37° C. for up to 24 hours.
The stability of [^14C]tigecycline was determined in control human serum spiked with [^14C]tigecycline at 3 μg/mL and incubated at 37° C. […] Aliquots (500 μL) were removed at 0, 1, 4, 8 and 24 hours and placed into fresh vials. EDTA (40 μL of 0.5 M) was added and samples centrifuged at 14,000 rpm and room temperature for 10 min (Eppendorf centrifuge, Model 5415C). Supernatants were transferred to HPLC vials and analyzed by HPLC with radioactivity flow detection.

The nature of series [6]: Stability of [14C]tigecycline in control human urine incubated at 37° C. The settings on record: for percent of radioactivity in spiked control urine: 37° C., 5 μg/mL. On the procedure: The stability of [^14C]tigecycline was determined in control human urine spiked with [^14C]tigecycline at 5 μg/mL and incubated at 37° C. […] Aliquots (500 μL) were removed at 0, 1, 4, 8 and 24 hours and placed into fresh vials. These urine samples were processed and analyzed as described for serum in control example 2.

The nature of series [7]: Stability of [14C]tigecycline during extraction from control human serum. Type of series: in vitro ADME. An excerpt:
In serum samples, [^14C]tigecycline accounted for 94% of the radioactivity prior to spiking and extracting the samples. After the extraction process, the amount of [^14C]tigecycline had decreased 24% to 70% of the radioactivity. There was a corresponding increase in other radioactive components, mainly the epimer of tigecycline, which increased from 4% prior to extraction to 22% following the extraction. Other minor products, which included M3a, increased from 2% prior to extraction to 8% following the extraction.
Additional serum samples were prepared as descried above and extracted. This was done to determine the effects, if any, of the extraction process on the stability of [^14C]tigecycline. These samples were analyzed by HPLC with radioactivity flow detection, as described in example 6.

Series [8] can be described thus: Stability of [14C]tigecycline during extraction from control human fecal homogenates. Type of series: in vitro ADME. The text has this: Similar results were observed following the extraction of [^14C]tigecycline from control fecal homogenates. In these samples, [^14C]tigecycline accounted for 94% of the radioactivity prior to extraction and 68% following the extraction. There was a corresponding increase in the epimer of tigecycline, which represented 4% of the radioactivity prior to extraction and 23% following the extraction. […] Other minor products represented less than 1% of the radioactivity prior to the extraction and 4% following the extraction.
The stability of [^14C]tigecycline during the extraction process was determined in control human fecal homogenates spiked with [^14C]tigecycline at 5 μg/g of homogenate. […] Samples were extracted and analyzed by HPLC with radioactivity flow detection.

The conditions of series [9]: rats, cited from earlier work.
The conditions of series [10]: dogs, cited from earlier work.

In the case of `CC(=O)Nc1cc(N(C)C)c2c(c1O)C(=O)C1=C(O)C3(O)C(=O)C(C(N)=O)=C(O)C(N(C)C)C3CC1C2` (stereo not drawn) [Metabolite M9, N-acetyl-9-aminominocycline], in series [1], the “observed in mouse urine by LC/MS” value is on record as “No M9 was observed”. In addition, the “Species and matrix in which identified” value in series [2] was “R-S”. Besides, in series [3], the “concentrations previously reported in human serum” value was 3 to 15 ng/mL.
Consider `CN(C)c1cc(N[14C](=O)CNC(C)(C)C)c(O)c2c1CC1CC3C(N(C)C)C(O)=C(C(N)=O)C(=O)C3(O)C(O)=C1C2=O` (stereo not drawn) [[^14C]tigecycline], for which the “radioactivity excreted in feces (mean)” value in [4] (complete collection, n=3) was 58.6±4.4%. For the same molecule, in series [4] (complete collection, n=3), the “radioactivity excreted in urine (mean)” value is 33.2±1.9%. For the same molecule, the “[14C]tigecycline dose recovered” value in [4] (first 48 hours, urine + feces) is on record as “Approximately 50%”. For the same molecule, in series [4] (urine + feces, n=3), the “Mean total recovery of radioactivity in human excreta” value amounted to 91.8%. Besides, the “percent radioactivity in spiked control serum” value in series [5] (0 hours) turned out to be 90%; in series [5] (24 hours), 81%. Besides, in series [5] (over 24 hours at 37° C.), the “decrease in percent radioactivity in spiked control serum” value is reported as “approximately 9%”. Besides, the “percent of radioactivity in spiked control urine” value in series [6] (0 hours) was 92%; in [6] (24 hours), 74%. In series [6] (0 to 24 hours at 37° C.), the “decrease in percent of radioactivity in spiked control urine” value amounted to 18%. Also, the “percent of the radioactivity, control serum” value is 70% in [7] (after the extraction process); 94% in series [7] (prior to spiking and extracting). In addition, the “decrease in percent of the radioactivity, control serum” value in series [7] (during the extraction process) is given as 24%. Besides, the “percent of the radioactivity, control fecal homogenates” value in series [8] (following the extraction) is reported as 68%; in series [8] (prior to extraction, 5 μg/g of homogenate) it was 94%. The “single intravenous [14C]tigecycline dose recovered” value in [9] (including cage rinse) and in series [10] (including cage rinse) was “approximately 89%” each time. Moreover, the “dose recovered in feces” value in series [9] was 53%; in series [10], 47%. In addition, the figures for the “dose recovered in urine” value in [9] and in series [10] were 34% and 36%, respectively.
